Results from patent US20130197085A1, “AGENT AND METHOD FOR STABILIZING MEMBRANE PROTEIN” (priority 2007, published 2013).

Tests used:
[1] = target: T1, BSEP expressing on canalicular membrane (Rattus norvegicus, UniProt O70127); assay: [^3H] TC injection experiment in vivo with pharmacokinetic analysis; design: species or system SD rat; conditions: for CLbile, liver / CLbile, plasma / CLtotal / Css, liver / Css, plasma: [^3H] TC, mean ± standard error
T1 construct: from tissue; host or cells: liver of male SD rats: in vivo for A27, canalicular membrane vesicles for A28 and A29
T1 sequence (O70127 1-1321): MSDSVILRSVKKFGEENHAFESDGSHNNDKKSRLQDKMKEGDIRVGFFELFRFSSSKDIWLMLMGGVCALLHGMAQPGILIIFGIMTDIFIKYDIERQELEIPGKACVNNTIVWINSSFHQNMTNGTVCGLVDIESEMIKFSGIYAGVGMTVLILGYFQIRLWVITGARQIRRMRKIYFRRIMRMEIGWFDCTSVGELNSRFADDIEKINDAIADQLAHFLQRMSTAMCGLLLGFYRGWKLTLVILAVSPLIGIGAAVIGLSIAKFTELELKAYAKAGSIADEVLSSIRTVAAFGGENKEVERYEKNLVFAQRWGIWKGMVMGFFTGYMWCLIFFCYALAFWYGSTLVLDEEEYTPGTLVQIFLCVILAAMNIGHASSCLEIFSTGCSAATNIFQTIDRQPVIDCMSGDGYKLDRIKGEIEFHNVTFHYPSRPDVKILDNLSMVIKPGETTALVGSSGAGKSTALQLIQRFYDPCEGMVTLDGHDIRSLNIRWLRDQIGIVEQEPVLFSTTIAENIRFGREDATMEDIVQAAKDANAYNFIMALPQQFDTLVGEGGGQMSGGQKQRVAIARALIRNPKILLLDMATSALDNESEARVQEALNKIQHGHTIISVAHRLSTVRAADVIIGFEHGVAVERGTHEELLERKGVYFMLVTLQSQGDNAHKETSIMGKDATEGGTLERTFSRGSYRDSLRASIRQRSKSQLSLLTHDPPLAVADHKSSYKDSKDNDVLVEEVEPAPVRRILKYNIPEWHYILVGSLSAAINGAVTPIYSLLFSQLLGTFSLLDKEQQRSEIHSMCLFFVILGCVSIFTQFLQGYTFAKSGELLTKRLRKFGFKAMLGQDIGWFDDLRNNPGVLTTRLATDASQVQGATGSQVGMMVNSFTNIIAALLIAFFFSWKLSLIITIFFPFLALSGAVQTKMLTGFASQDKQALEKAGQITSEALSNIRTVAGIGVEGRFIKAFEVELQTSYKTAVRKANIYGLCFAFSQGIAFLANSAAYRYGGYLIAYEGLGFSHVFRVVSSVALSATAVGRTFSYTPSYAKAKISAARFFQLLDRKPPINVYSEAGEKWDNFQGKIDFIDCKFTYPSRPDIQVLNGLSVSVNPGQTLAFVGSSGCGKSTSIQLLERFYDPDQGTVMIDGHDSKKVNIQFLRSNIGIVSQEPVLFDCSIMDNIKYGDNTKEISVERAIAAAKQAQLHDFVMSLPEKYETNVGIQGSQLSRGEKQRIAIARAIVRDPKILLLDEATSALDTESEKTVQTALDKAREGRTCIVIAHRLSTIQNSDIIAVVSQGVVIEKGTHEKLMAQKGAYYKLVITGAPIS
Description: Male SD rats (6- to 7-week-old) were purchased from Nippon SLC. All the animals were bred under day-night reversal conditions. They were treated under standard conditions based on the protection of animals. Feed and water were given without any limitation.
It is to be noted that the present study was carried out in accordance with the guidelines determined by the animal experiment committee in the university. 4PBA or a vehicle was given to each SD rat via a tube, for a certain period of time (5, 10, and 15 days), at various doses ([…]). After completion of the 4PBA treatment, a [^3H] TC injection experiment was carried out in vivo (see Hirano et al., Mol Pharmacol 68: 800-807. 2005). [^3H] TC dissolved in a normal saline was injected into each rat, via a cannula inserted into the femoral vein thereof, at a rate of 70 ng/min/kg for 90 minutes. Blood and bile were collected for a certain period of time. Radioactivity in plasma, bile, and liver was measured.
The total clearance of plasma (CLtotal) the clearance of bile standardized with circulating plasma (CLbile, plasma), and the clearance of bile standardized with the concentration in the liver (CLbile, liver) were calculated using the following formulae:
CLbile, plasma=Vss, bile/Css, plasma; and
CLbile, liver=Vss, bile/Css, liver
(wherein “I,” “Css, plasma,” Vss, bile” and “Css, and liver” represent, respectively, an injection rate (ng/min/kg), a plasma concentration in a steady state ([…]), a bile elimination rate in a steady state (ng/min/kg), and a mean liver concentration (ng/ml)). The plasma concentration in a steady state (Css, plasma) indicates the mean value of plasma [^3H] TC concentrations at time points of 15, 30, 60, and 90 minutes. The bile elimination rate (Vss, bile) indicates the mean value of the bile elimination rates of [^3H] TC at time points of 10-15 minutes, 25-30 minutes, 55-60 minutes, and 85-90 minutes. The mean liver concentration (Css, liver) indicates the mean value of liver [^3H] TC concentrations at the termination of the in vivo experiment.

BSEP = target: T2, BSEP (Rattus norvegicus, UniProt O70127); assay: Western blotting of canalicular membrane vesicles (CMVs) from treated rats; assay type: in vivo, SD rat; conditions: CMVs from SD rats treated at 0.6 g/kg/day for 10 days
T2 construct: from tissue; host or cells: liver of male SD rats: in vivo for A27, canalicular membrane vesicles for A28 and A29
T2 sequence (O70127 1-1321): T1 sequence (O70127 1-1321)
Description: […] 4PBA or a vehicle was given to a male SD rat (6- to 7-week-old) for 10 days, divided over 3 administrations. Canalicular membrane vesicles were prepared from the liver of the rat (Akita et al., Biochim Biophys Acta, 1511: 7-16, 2001), and they were then used in Western blotting and a transport assay. Such transport assay was carried out by a rapid filtration method (Hayashi et al., Biochim Biophys Acta, 1738: 54-62, 2005).

[2] = 4PBA (0.2 g/kg/day), N = 3, SD rats
[3] = 4PBA (0.6 g/kg/day), N = 9, SD rats
[4] = 4PBA (2.4 g/kg/day), N = 3, SD rats

For O=C(O)CCCc1ccccc1 [4PBA, 4-phenylbutyric acid], the “CLbile, liver with respect to [^3H] TC, greater than vehicle-treated rats” value ([1]; 0.6 k/kg/day for 10 days) was 2 times, the “CLbile, plasma with respect to [^3H] TC, 4PBA-treated vs vehicle-treated SD rats” value ([1]; 0.6 k/kg/day for 10 days) was “no significant difference” and the “CLtotal with respect to [^3H] TC, 4PBA-treated vs vehicle-treated SD rats” value ([1]; 0.6 k/kg/day for 10 days) was “no significant difference”. For the same compound, the “Css, liver of [^3H] TC as fraction of that in vehicle-treated SD rats” value ([1]; 0.6 k/kg/day for 10 days) was “½”, the “Css, plasma of [^3H] TC, 4PBA-treated vs vehicle-treated SD rats” value ([1]; 0.6 k/kg/day for 10 days) was “no significant difference” and the “Vss, bile of [^3H] TC, 4PBA-treated vs vehicle-treated SD rats” value ([1]; 0.6 k/kg/day for 10 days) was “no significant difference”. The “CLbile, liver” value [1, 2] was 1.14 ± 0.234 L/h/kg, the “CLbile, plasma” value [1, 2] was 1.58 ± 0.12 L/h/kg and the CLtotal [1, 2] was 1.6 ± 0.228 L/h/kg. For the same compound, the “Css, liver” value [1, 2] was 3.8 ± 0.7 ng/mL, the “Css, plasma” value [1, 2] was 2.6 ± 0.2 ng/mL and the “CLbile, liver” value [1, 3] was 1.76 ± 0.366 L/h/kg. For the same compound, the “CLbile, plasma” value [1, 3] was 1.94 ± 0.174 L/h/kg, the CLtotal [1, 3] was 1.84 ± 0.222 L/h/kg and the “Css, liver” value [1, 3] was 2.6 ± 0.5 ng/mL. For the same compound, the “Css, plasma” value [1, 3] was 2.0 ± 0.2 ng/mL, the “CLbile, liver” value [1, 4] was 1.15 ± 0.192 L/h/kg and the “CLbile, plasma” value [1, 4] was 1.43 ± 0.282 L/h/kg. For the same compound, the CLtotal [1, 4] was 1.78 ± 0.21 L/h/kg, the “Css, liver” value [1, 4] was 5.9 ± 1.8 ng/mL and the “Css, plasma” value [1, 4] was 3.3 ± 0.7 ng/mL. The “CLbile, liver” value ([1]; 4PBA (5 days), N = 6, SD rats) was 1.3 ± 0.18 L/h/kg, the “CLbile, plasma” value ([1]; 4PBA (5 days), N = 6, SD rats) was 1.94 ± 0.51 L/h/kg and the CLtotal ([1]; 4PBA (5 days), N = 6, SD rats) was 1.6 ± 0.228 L/h/kg. The “Css, liver” value ([1]; 4PBA (5 days), N = 6, SD rats) was 3.1 ± 0.5 ng/mL, the “Css, plasma” value ([1]; 4PBA (5 days), N = 6, SD rats) was 2.3 ± 0.3 ng/mL and the “CLbile, liver” value ([1]; 4PBA (10 days), N = 9, SD rats) was 1.76 ± 0.366 L/h/kg. The “CLbile, plasma” value ([1]; 4PBA (10 days), N = 9, SD rats) was 1.94 ± 0.174 L/h/kg, the CLtotal ([1]; 4PBA (10 days), N = 9, SD rats) was 1.84 ± 0.222 L/h/kg and the “Css, liver” value ([1]; 4PBA (10 days), N = 9, SD rats) was 2.6 ± 0.5 ng/mL. For the same compound, the “Css, plasma” value ([1]; 4PBA (10 days), N = 9, SD rats) was 2.0 ± 0.2 ng/mL, the “CLbile, liver” value ([1]; 4PBA (15 days), N = 3, SD rats) was 1.79 ± 0.09 L/h/kg and the “CLbile, plasma” value ([1]; 4PBA (15 days), N = 3, SD rats) was 1.99 ± 0.12 L/h/kg. For the same compound, the CLtotal ([1]; 4PBA (15 days), N = 3, SD rats) was 1.65 ± 0.162 L/h/kg, the “Css, liver” value ([1]; 4PBA (15 days), N = 3, SD rats) was 2.3 ± 0.2 ng/mL and the “Css, plasma” value ([1]; 4PBA (15 days), N = 3, SD rats) was 2.1 ± 0.2 ng/mL. The side effects ([1]; SD rats, under all conditions (various times and doses)) was “No clear side effects were recognized” and the “expression level of BSEP in CMVs, increase” value (BSEP) was 3.2 times.
